# Measurements taken from US6127377A, “Vinca alkaloid antimitotic halogenated derivatives” (Adir et Compagnie, priority 1997, dated 2000).
# System: tubulin
# Assay: inhibition of the polymerization of tubulin into microtubules, followed by changes in optical density (Weisenberg method)
# Format: biochemical
# Conditions: read-out: IC50, concentration of compound which brings about a 50% inhibition of the polymerization of tubulin into microtubules
# Source text: This property was confirmed by measuring the inhibition of the polymerization of tubulin into microtubules in the presence of the compounds of the invention, according to the method described by R. C. Weisenberg (Science 177, 1196-7, 1972). The results are expressed in terms of IC50, which corresponds to the concentration of compound which brings about a 50% inhibition of the polymerization. This phenomenon is readily monitored and quantified by means of the changes in optical density.
row,Compound,IC50 [µM]
1,"CC[C@]12C=CCN3CC[C@@]4(c5cc([C@@]6(C(=O)OC)C[C@@H]7CC(C(C)Cl)CN(CCc8c6[nH]c6ccccc86)C7)c(OC)cc5N(C)[C@H]4[C@@](O)(C(=O)OC)[C@@H]1OC(C)=O)[C@@H]32 (stereo partly drawn) [Example 1, 20'-chloro-4'-deoxyvinblastine]",1.99
2,"CC[C@]12C=CCN3CC[C@@]4(c5cc([C@@]6(C(=O)OC)C[C@H]7CN(CCc8c6[nH]c6ccccc86)CC(F)(C(C)Cl)C7)c(OC)cc5N(C)[C@H]4[C@@](O)(C(=O)OC)[C@@H]1OC(C)=O)[C@@H]32 (stereo partly drawn) [Example 3, 20'-chloro-4'-deoxy-4'-fluorovinblastine]",1.54
3,"CCC1=C[C@@H]2CN(C1)Cc1c([nH]c3ccccc13)[C@@](C(=O)OC)(c1cc3c(cc1OC)N(C)[C@H]1[C@@](O)(C(=O)OC)[C@H](OC(C)=O)[C@]4(CC)C=CCN5CC[C@]31[C@@H]54)C2 [Vinorelbine, reference compound]",1.7
